Measured values: patent US20240270762A1, “PENICILLIN-BINDING PROTEIN INHIBITORS” (priority 2021, published 2024)
Converted amounts (≈) assume the structure as drawn.

Experiments:
[1] = system: B. humptydooensis ATCC BAA-2767; test: microbe, parasite or virus in culture; type: cell-based; conditions: Burkholderia humptydooensis, ATCCBAA2767, read-out: Minimum inhibitory concentration (MIC), B. humptydooensis ATCC BAA-2767
[2] = system: N. gonorrhoeae MS11; test: Liquid broth MIC in Fastidious broth; conditions: Neisseria gonorrhoeae, MS11, read-out: Minimum Inhibitory Concentration, MS11
[3] = molecular target: T1, PBP3 from Pseudomonas aeruginosa (PAO1) (Pseudomonas aeruginosa, UniProt G3XD46); test: Bocillin-FL fluorescence polarization competition binding, P. aeruginosa PBP3; conditions: Binding affinity to P. aeruginosa PBP3; fluorescence polarization competition binding assay using Bocillin-FL; read-out: P. aeruginosa PBP3 Potency
T1 construct: made in house
Outline: (§1)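 Purified PBPs pre-incubated with inhibitor (E. coli PBP3 1.5 μM, 30 min; P. aeruginosa PBP3 0.75 μM, A. baumannii PBP1a 1 μM and PBP3 0.2 μM, 15 min), then Bocillin-FL 0.1 μM (0.05 μM for PBP1a) added; FP read up to 60 min. EC50 = concentration halving bound Bocillin-FL.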

[4] = system: N. gonorrhoeae WHO L; test: Liquid broth MIC in Fastidious broth; conditions: Neisseria gonorrhoeae, read-out: Minimum Inhibitory Concentration, WHO L
[5] = system: N. gonorrhoeae ATCC 49226; test: Liquid broth MIC in Fastidious broth; conditions: Neisseria gonorrhoeae, ATCC49226, read-out: Minimum Inhibitory Concentration, ATCC 49226
[6] = system: N. gonorrhoeae CDC-0197; test: Liquid broth MIC in Fastidious broth; conditions: Neisseria gonorrhoeae, CDC0197, read-out: Minimum Inhibitory Concentration, CDC-0197
[7] = system: P. aeruginosa ATCC 27853; test: microbe, parasite or virus in culture; type: cell-based; conditions: Pseudomonas aeruginosa, ATCC27853, read-out: Minimum inhibitory concentration, P. aeruginosa ATCC 27853
[8] = system: A. baumannii CDC-0045; test: microbe, parasite or virus in culture; type: cell-based; conditions: Acinetobacter baumannii, CDC0045, read-out: MIC, A. baumannii CDC-0045
[9] = system: N. gonorrhoeae WHO G; test: Liquid broth MIC in Fastidious broth; conditions: Neisseria gonorrhoeae, read-out: Minimum Inhibitory Concentration, WHO G
[10] = system: N. gonorrhoeae WHO Z; test: Liquid broth MIC in Fastidious broth; conditions: Neisseria gonorrhoeae, read-out: Minimum Inhibitory Concentration, WHO Z
[11] = molecular target: T2, PBP3 from Escherichia coli (K-12) (Escherichia coli, UniProt P0AD68); test: Bocillin-FL fluorescence polarization competition binding, E. coli PBP3
T2 construct: made in house
Outline: as §1

[12] = system: A. baumannii ATCC 19606; test: microbe, parasite or virus in culture; type: cell-based; conditions: Acinetobacter baumannii, ATCC19606, read-out: MIC, A. baumannii ATCC 19606
[13] = system: B. thailandensis ATCC 700388; test: microbe, parasite or virus in culture; type: cell-based; conditions: Burkholderia thailandensis, ATCC700388, read-out: Minimum inhibitory concentration (MIC), B. thailandensis ATCC 700388
[14] = system: N. gonorrhoeae FA1090; test: Liquid broth MIC in Fastidious broth; conditions: Neisseria gonorrhoeae, FA1090, read-out: Minimum Inhibitory Concentration, FA 1090
[15] = system: P. aeruginosa (ΔmexAB-oprM); test: Broth microdilution MIC in iron-depleted CAMHB (IDM); type: cell-based; conditions: Pseudomonas aeruginosa; iron-depleted CAMHB (IDM); […]; read-out: Minimum inhibitory concentration, P. aeruginosa ΔmexAB-oprM

T1 sequence (G3XD46 whole entry): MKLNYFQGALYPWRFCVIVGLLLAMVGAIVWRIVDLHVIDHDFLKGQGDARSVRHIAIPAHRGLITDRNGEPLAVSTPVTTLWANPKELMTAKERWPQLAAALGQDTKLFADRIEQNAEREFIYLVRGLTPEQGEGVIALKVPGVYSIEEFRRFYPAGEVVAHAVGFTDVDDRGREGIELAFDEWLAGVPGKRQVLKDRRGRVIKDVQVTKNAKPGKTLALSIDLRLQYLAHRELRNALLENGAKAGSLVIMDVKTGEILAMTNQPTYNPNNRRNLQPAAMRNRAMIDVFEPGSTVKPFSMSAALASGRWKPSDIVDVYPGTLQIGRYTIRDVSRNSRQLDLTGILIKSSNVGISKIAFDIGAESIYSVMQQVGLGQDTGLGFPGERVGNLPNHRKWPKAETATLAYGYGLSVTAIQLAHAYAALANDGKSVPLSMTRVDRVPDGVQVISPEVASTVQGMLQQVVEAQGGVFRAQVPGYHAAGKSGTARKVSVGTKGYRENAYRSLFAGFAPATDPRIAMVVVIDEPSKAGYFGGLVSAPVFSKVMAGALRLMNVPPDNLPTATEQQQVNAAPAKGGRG
T2 sequence (P0AD68 1-577): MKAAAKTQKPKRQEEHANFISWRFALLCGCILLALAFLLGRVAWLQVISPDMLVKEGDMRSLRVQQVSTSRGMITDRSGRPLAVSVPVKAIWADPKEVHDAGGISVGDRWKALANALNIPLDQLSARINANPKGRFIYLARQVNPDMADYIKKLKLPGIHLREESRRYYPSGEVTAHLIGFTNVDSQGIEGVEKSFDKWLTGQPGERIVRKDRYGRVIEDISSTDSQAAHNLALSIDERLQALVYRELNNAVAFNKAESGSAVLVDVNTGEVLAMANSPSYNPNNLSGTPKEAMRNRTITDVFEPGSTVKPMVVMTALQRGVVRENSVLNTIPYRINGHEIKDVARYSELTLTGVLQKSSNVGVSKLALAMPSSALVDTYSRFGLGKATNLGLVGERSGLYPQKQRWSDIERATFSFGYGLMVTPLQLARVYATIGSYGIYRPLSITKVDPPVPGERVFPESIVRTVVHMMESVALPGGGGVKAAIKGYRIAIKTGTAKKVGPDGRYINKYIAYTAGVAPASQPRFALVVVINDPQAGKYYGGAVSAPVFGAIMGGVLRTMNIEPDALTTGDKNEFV

Row | Compound | MIC [1] [µg/mL] | MIC [2] [µg/mL] | IC50 [3] [µM] | MIC [4] [µg/mL] | MIC [5] [µg/mL] | MIC [6] [µg/mL] | MIC [7] [µg/mL] | MIC [8] [µg/mL] | MIC [9] [µg/mL] | MIC [10] [µg/mL] | EC50 [11] [µM] | MIC [12] [µg/mL] | MIC [13] [µg/mL] | MIC [14] [µg/mL] | MIC [15] [µg/mL]
1 | O=C(O)c1c(F)ccc2c1OB(O)[C@@H](NC(=O)C(NC(=O)N1CCN(CCNC(=O)[C@@H]3CCCN3)C1=O)c1cc(F)c(O)c(O)c1Cl)C2 (stereo partly drawn) [Example 248, (3R)-3-(2-(2-chloro-5-fluoro-3,4-dihydroxyphenyl)-2-(2-oxo-3-(2-((S)-pyrrolidine-2-carboxamido)ethyl)imidazolidine-1-carboxamido)acetamido)-7-fluoro-2-hydroxy-3,4-dihydro-2H-benzo[e][1,2]oxaborinine-8-carboxylic acid] | < 1 | 16 to 32 (≈ 23 to 46.1 µM) | 10 to 50 | > 64 | 16 to 32 (≈ 23 to 46.1 µM) | 16 to 32 (≈ 23 to 46.1 µM) | 2 to 4 (≈ 2.88 to 5.76 µM) | < 1 | 16 to 32 (≈ 23 to 46.1 µM) | 16 to 32 (≈ 23 to 46.1 µM) | 10 to 50 | < 1 | 2 to 4 (≈ 2.88 to 5.76 µM) | 4 to 8 (≈ 5.76 to 11.5 µM) | < 1
2 | O=C(NCCN1CCN(C(=O)NC(C(=O)N[C@H]2Cc3ccc(F)c(C(=O)O)c3OB2O)c2cc(F)c(O)c(O)c2Cl)C1=O)Nc1cccc(O)c1 (stereo partly drawn) [Example 249, (3R)-3-(2-(2-chloro-5-fluoro-3,4-dihydroxyphenyl)-2-(3-(2-(3-(3-hydroxyphenyl)ureido)ethyl)-2-oxoimidazolidine-1-carboxamido)acetamido)-7-fluoro-2-hydroxy-3,4-dihydro-2H-benzo[e][1,2]oxaborinine-8-carboxylic acid] | < 1 | 16 to 32 (≈ 21.8 to 43.7 µM) | < 10 | > 64 | 16 to 32 (≈ 21.8 to 43.7 µM) | > 64 | 2 to 4 (≈ 2.73 to 5.46 µM) | < 1 | 16 to 32 (≈ 21.8 to 43.7 µM) | 16 to 32 (≈ 21.8 to 43.7 µM) | < 10 | < 1 | 2 to 4 (≈ 2.73 to 5.46 µM) | 1 to 2 (≈ 1.36 to 2.73 µM) | < 1
3 | O=C(NCCN1CCN(C(=O)NC(C(=O)N[C@H]2Cc3ccc(F)c(C(=O)O)c3OB2O)c2cc(F)c(O)c(O)c2Cl)C1=O)Nc1ccncc1 (stereo partly drawn) [Example 250, (3R)-3-(2-(2-chloro-5-fluoro-3,4-dihydroxyphenyl)-2-(2-oxo-3-(2-(3-(pyridin-4-yl)ureido)ethyl)imidazolidine-1-carboxamido)acetamido)-7-fluoro-2-hydroxy-3,4-dihydro-2H-benzo[e][1,2]oxaborinine-8-carboxylic acid] | < 1 | 16 to 32 (≈ 22.3 to 44.6 µM) | < 10 | > 64 | > 64 | > 64 | 2 to 4 (≈ 2.79 to 5.57 µM) | < 1 | > 64 | > 64 | < 10 | < 1 | > 128 | 4 to 8 (≈ 5.57 to 11.1 µM) | < 1
4 | O=C(NCCN1CCN(C(=O)NC(C(=O)N[C@H]2Cc3ccc(F)c(C(=O)O)c3OB2O)c2cc(F)c(O)c(O)c2Cl)C1=O)Nc1cccnc1 (stereo partly drawn) [Example 251, (3R)-3-(2-(2-chloro-5-fluoro-3,4-dihydroxyphenyl)-2-(2-oxo-3-(2-(3-(pyridin-3-yl)ureido)ethyl)imidazolidine-1-carboxamido)acetamido)-7-fluoro-2-hydroxy-3,4-dihydro-2H-benzo[e][1,2]oxaborinine-8-carboxylic acid] | < 1 | 16 to 32 (≈ 22.3 to 44.6 µM) | < 10 | > 64 | 16 to 32 (≈ 22.3 to 44.6 µM) | > 64 | < 1 | < 1 | 16 to 32 (≈ 22.3 to 44.6 µM) | 16 to 32 (≈ 22.3 to 44.6 µM) | < 10 | < 1 | < 1 | 4 to 8 (≈ 5.57 to 11.1 µM) | < 1
5 | O=C(NCCCN1CCN(C(=O)N[C@H](C(=O)N[C@H]2Cc3ccc(F)c(C(=O)O)c3OB2O)c2cc(F)c(O)c(O)c2Cl)C1=O)c1ccccc1 [Example 252, (R)-3-((S)-2-(3-(3-benzamidopropyl)-2-oxoimidazolidine-1-carboxamido)-2-(2-chloro-5-fluoro-3,4-dihydroxyphenyl)acetamido)-7-fluoro-2-hydroxy-3,4-dihydro-2H-benzo[e][1,2]oxaborinine-8-carboxylic acid] | > 128 | > 64 | > 250 | > 64 | > 64 | > 64 | > 128 | > 128 | > 64 | > 64 | > 250 | > 128 | > 128 | > 64 | > 128
6 | O=C(NCCCN1CCN(C(=O)N[C@H](C(=O)N[C@H]2Cc3ccc(F)c(C(=O)O)c3OB2O)c2cc(F)c(O)c(O)c2Cl)C1=O)c1cccc(O)c1 [Example 254, (R)-3-((S)-2-(2-chloro-5-fluoro-3,4-dihydroxyphenyl)-2-(3-(3-(3-hydroxybenzamido)propyl)-2-oxoimidazolidine-1-carboxamido)acetamido)-7-fluoro-2-hydroxy-3,4-dihydro-2H-benzo[e][1,2]oxaborinine-8-carboxylic acid] | > 128 | > 64 | 50 to 250 | > 64 | > 64 | > 64 | > 128 | > 128 | > 64 | > 64 | 50 to 250 | 8 to 16 (≈ 10.9 to 21.9 µM) | > 128 | > 64 | > 128
7 | O=C(NCCCN1CCN(C(=O)N[C@@H](C(=O)N[C@H]2Cc3ccc(F)c(C(=O)O)c3OB2O)c2cc(F)c(O)c(O)c2Cl)C1=O)c1cccc(O)c1 [Example 255, (R)-3-((R)-2-(2-chloro-5-fluoro-3,4-dihydroxyphenyl)-2-(3-(3-(3-hydroxybenzamido)propyl)-2-oxoimidazolidine-1-carboxamido)acetamido)-7-fluoro-2-hydroxy-3,4-dihydro-2H-benzo[e][1,2]oxaborinine-8-carboxylic acid] | < 1 | 16 to 32 (≈ 21.9 to 43.7 µM) | < 10 | > 64 | 16 to 32 (≈ 21.9 to 43.7 µM) | 16 to 32 (≈ 21.9 to 43.7 µM) | < 1 | < 1 | 4 to 8 (≈ 5.47 to 10.9 µM) | 16 to 32 (≈ 21.9 to 43.7 µM) | < 10 | < 1 | < 1 | 1 to 2 (≈ 1.37 to 2.73 µM) | < 1
